pIC50: −log10 of the molar value.
Legend:
HDAC3 = target: T1, HDAC3 (Homo sapiens, UniProt O15379); assay: HDAC enzymatic activity (Eurofins); format: biochemical; details: Class I; ACY-1083 mean of two separate measurements, Ricolinostat and Tubastatin A one measurement
T1 construct: purchased Eurofins Pharma Discovery Services 2083

HDAC9 = target: T2, HDAC9 (Homo sapiens, UniProt Q9UKV0); assay: HDAC enzymatic activity (Eurofins); format: biochemical; details: Class IIA; ACY-1083 mean of two separate measurements, Ricolinostat and Tubastatin A one measurement
T2 construct: purchased Eurofins Pharma Discovery Services 2611

[1] = Spike test in ALI cell media (stability and binding to plastic and media components); format: in vitro ADME
Experimental: Compound concentration was then analysed after 18hrs incubation at 37 °C by LC-MSMS (Method DMPK&BAC 001–04).

hERG = target: T3, hERG (Homo sapiens, UniProt Q12809); assay: Cardiovascular ion channel panel, SyncroPatch 384PE patch clamp; format: cell-based; details: CHO K1 cell line, room temperature, 6 point cumulative assay
T3 construct: expressed in transfected cells; host or cells: Chinese hamster ovary K1 cell line

Kv4.3 = target: T4, Kv4.3 (Homo sapiens, UniProt Q9UK17); assay: as above; format: cell-based; details: CHO K1 cell line, room temperature, 6 point cumulative assay
T4 construct: expressed in transfected cells; host or cells: Chinese hamster ovary K1 cell line
T4 sequence (Q9UK17 1-655): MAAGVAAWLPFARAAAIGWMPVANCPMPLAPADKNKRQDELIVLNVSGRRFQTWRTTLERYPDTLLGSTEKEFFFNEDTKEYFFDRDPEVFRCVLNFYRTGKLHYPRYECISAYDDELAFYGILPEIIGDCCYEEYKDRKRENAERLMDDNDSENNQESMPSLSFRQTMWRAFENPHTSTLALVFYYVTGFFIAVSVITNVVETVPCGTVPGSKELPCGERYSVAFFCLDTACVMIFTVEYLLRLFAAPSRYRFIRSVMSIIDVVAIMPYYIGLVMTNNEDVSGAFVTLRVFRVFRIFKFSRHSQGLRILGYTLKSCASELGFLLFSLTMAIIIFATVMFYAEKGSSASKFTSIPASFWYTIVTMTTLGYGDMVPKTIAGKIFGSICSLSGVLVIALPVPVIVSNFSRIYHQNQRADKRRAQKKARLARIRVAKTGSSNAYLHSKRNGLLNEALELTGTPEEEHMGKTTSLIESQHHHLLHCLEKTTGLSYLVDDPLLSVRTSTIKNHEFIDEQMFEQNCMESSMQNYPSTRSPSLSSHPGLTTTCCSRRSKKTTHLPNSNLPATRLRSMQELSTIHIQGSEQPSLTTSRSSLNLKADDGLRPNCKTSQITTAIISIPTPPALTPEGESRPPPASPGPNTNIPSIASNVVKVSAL

[2] = 10 μM spiked into cell media, 18 hrs

T1 sequence (O15379 whole entry): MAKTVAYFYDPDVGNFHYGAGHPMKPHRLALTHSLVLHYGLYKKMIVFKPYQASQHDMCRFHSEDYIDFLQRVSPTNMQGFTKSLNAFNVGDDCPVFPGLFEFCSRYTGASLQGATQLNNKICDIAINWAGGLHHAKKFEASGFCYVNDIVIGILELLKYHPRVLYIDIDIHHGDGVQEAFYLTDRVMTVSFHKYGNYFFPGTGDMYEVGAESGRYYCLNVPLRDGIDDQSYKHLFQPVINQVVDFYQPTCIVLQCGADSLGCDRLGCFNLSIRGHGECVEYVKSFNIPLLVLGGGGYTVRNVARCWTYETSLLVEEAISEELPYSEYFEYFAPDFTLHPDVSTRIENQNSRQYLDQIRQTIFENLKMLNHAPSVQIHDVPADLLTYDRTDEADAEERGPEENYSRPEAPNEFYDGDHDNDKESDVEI
T1 sequence (Q9Y618 395-489 partner limits assumed): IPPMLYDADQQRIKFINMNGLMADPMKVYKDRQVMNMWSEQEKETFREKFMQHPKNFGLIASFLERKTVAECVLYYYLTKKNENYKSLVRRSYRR
T2 sequence (Q9UKV0 whole entry): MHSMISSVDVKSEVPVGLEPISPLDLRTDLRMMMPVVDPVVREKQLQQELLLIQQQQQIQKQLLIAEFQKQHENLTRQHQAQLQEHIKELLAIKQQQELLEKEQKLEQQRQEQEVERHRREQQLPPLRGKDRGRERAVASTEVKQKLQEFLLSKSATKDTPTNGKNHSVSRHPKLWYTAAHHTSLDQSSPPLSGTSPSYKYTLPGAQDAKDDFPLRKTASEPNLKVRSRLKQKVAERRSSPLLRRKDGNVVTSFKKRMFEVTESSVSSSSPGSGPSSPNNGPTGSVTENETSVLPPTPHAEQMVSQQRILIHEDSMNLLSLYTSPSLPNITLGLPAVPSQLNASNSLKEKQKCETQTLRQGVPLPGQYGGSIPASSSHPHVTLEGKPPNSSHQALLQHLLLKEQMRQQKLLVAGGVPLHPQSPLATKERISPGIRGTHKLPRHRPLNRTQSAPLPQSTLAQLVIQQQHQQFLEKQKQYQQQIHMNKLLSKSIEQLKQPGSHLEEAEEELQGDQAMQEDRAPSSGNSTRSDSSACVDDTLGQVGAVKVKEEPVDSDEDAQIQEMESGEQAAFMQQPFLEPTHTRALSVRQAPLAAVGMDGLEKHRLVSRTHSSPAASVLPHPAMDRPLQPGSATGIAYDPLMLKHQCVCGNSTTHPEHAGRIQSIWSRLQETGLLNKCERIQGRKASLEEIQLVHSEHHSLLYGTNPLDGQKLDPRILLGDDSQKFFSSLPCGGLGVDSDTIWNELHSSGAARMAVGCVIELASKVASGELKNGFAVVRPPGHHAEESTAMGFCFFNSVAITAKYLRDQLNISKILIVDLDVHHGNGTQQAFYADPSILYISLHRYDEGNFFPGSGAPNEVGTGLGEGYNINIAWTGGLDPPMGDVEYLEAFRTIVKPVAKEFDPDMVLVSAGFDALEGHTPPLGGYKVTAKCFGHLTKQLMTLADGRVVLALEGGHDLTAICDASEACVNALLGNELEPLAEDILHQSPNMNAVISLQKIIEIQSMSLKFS
T3 sequence (Q12809 whole entry): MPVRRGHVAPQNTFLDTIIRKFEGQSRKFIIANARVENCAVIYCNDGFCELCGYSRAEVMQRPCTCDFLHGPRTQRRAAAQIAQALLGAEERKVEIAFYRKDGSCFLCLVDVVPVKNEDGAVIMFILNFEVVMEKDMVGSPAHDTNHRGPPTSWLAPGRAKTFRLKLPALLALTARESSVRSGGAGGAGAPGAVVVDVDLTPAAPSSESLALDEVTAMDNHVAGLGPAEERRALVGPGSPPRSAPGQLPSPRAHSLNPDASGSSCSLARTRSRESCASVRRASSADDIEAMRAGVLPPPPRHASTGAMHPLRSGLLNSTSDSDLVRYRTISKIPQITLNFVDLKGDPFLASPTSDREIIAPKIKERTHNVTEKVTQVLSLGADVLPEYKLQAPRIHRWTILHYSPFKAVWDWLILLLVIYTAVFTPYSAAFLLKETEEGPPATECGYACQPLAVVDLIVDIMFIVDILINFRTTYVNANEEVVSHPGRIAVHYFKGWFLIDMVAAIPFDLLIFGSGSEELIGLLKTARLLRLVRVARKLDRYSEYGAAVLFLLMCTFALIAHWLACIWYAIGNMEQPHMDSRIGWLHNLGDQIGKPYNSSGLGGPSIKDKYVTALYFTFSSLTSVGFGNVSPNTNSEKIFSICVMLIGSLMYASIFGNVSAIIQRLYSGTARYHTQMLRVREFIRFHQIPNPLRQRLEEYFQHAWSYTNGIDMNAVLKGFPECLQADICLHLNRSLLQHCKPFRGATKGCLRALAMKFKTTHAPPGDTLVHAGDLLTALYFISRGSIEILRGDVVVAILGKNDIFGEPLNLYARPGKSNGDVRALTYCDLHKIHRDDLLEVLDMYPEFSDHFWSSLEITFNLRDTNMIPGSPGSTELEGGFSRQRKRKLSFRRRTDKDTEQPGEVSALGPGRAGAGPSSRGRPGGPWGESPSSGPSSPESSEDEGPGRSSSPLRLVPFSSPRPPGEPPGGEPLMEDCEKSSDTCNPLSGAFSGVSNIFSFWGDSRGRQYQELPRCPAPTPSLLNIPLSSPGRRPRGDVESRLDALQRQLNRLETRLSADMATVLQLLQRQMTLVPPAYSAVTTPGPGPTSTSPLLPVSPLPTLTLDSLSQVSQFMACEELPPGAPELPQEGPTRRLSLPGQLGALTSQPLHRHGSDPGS

ACY-1083
pIC50 (HDAC3): < 4.06
pIC50 (HDAC9): 4.71
drug concentration after 18 hrs ([1]; 10 μM spiked into ALI cell media in a test tube, 37 °C, LC-MSMS): ~4 µM
compound lost in the system [1, 2]: 60%
remaining after spike test [1, 2]: approximately 40%
activity on hERG (hERG): > 30 µM
activity on Kv4.3 (Kv4.3): > 30 µM

From publication PMC9555642 (PLoS ONE, 2022)
